In US10059694B2, “2-aminopyrimidine compound and pharmaceutical composition and use thereof” (Shanghai Institute of Materia Medica, Chinese Academy of …, priority 2014, dated 2018):
Like-named read-outs stand apart in the source and are kept apart here.

Tests used:
EGFR^T790M/L858R = target: T1, EGFR^T790M/L858R (Homo sapiens, UniProt P00533, L858R/T790M); experiment: kinase inhibitory activity test (ELISA), EGFR^T790M/L858R; format: biochemical; conditions: for IC50: ELISA, ATP 5 μM, 1 hour at 37° C.
T1 construct: purchased Millipore
Description: (§1) The enzyme substrate poly (glutamic acid, tyrosine)4:1 (Sigma) was diluted with potassium-free PBS (10 mM sodium phosphate buffer, 150 mM NaCl, pH 7.2-7.4) to 20 μg/mL, plate coated with 125 μL/well, reacted for 12-16 hours at 37° C. After the liquid in the wells was discarded, the plates were washed three times with 200 μL/well of T-PBS (PBS containing 0.1% Tween-20), and each time for 5 minutes, and then dried for 1-2 hours in an oven at 37° C. 50 μL of ATP solution diluted with reaction buffer (50 mM HEPES pH 7.4, 50 mM MgCl2, 5 mM MnCl2, 0.2 mM Na3VO4, 1 mM DTT) was added into each well and the final concentration was 5 μM. The compounds were diluted with 1% DMSO to suitable concentrations and were added at 10 μL/well. […] The above reaction system was reacted for 1 hour at 37° C. shaking table (100 rpm). Control wells with no enzyme and control wells with DMSO solvent were set in each experiment. After the reaction was completed, the plates were washed three times with T-PBS. The anti-phosphotyrosine primary antibody PY99 (Santa Cruz) was added at 100 μL/well and the antibody was diluted with T-PBS containing BSA 5 mg/mL by 1:1000. The mixture was reacted for 0.5 h at 37° C. shaking table, the plates were washed three times with T-PBS. The secondary antibody which was horseradish peroxidase-labeled goat anti-mouse IgG was added at 100 μL/well (the antibody was diluted with T-PBS containing BSA 5 mg/mL by 1:2000). The mixture was reacted for 0.5 h at 37° C. shaking table, the plates were washed three times with T-PBS. 2 l/mL of OPD coloring solution was added at 100 μL/well (diluted with 0.1 M citric acid-sodium citrate buffer (pH=5.4) containing 0.03% H2O2) and dark reacted for 1 to 10 minutes at 25° C. 2 M H2SO4 was added at 50 μL/well to terminate the reaction. Reading was carried out with an adjustable wavelength microplate enzyme-labeled instrument SPECTRA MAX 190 at 490 nm wavelength.
(§2) The IC50 value was calculated by the four-parameter fitting of the suppression curve.

EGFR^wt = target: T2, EGFR^wt (Homo sapiens, UniProt P00533); experiment: kinase inhibitory activity test (ELISA), EGFR^WT; format: biochemical; conditions: ATP 5 μM, 1 hour at 37° C.
T2 construct: purchased Millipore
Description: as §1, §2

[1] = test system: human non-small cell lung cancer NCI-H1975 cell line; experiment: SRB proliferation assay, NCI-H1975 cells; format: cell-based; conditions: read-out: IC50 NCI-H1975
Description: (§3) Cell lines: human epidermal carcinoma A431 cell line and human non-small cell lung cancer NCI-H1975 cell line was purchased from the American Standard Biology Collection Center (ATCC).
Methods: sulforhodamine B (SRB) method, which was as follows: certain number of different tumor cells in logarithmic growth phase were inoculated on 96-well culture plates. After cultured for 24 h to cell adherence, different concentrations of the test compounds of the invention were added. Each concentration was provided with three wells, and a corresponding concentration of DMSO solvent control and a cell-free zeroing well were set. After the cells were treated with the medicine for 72 h, the culture medium was discarded and 100 μL of 10% pre-cooled trichloroacetic acid solution was added to fix the cells. After placed for 1 h at 4° C., it was washed for 5 times with distilled water and dried naturally. Then 100 μL SRB (4 mg/mL) (Sigma) solution was added and stained for 15 min at room temperature. The staining solution was discarded and washed for 5 times with 1% glacial acetic acid and dried. Finally, 150 μL of 10 mM Tris solution (pH 10.5) was added and the OD value was measured at 515 nm with adjustable wavelength microplate enzyme-labeled instrument (VERSAmax™, Molecular Device Corporation, Sunnyvale, Calif., USA). […] Based on the inhibitory effect of the 2-aminopyrimidine compounds on the growth of these cells, the half maximal inhibitory concentration (IC50) values were calculated, as shown in Table 2.

IGF-1R = target: T3, IGF-1R (Homo sapiens, UniProt P08069); experiment: kinase inhibitory activity test (ELISA), IGF-1R; format: biochemical; conditions: ATP 5 μM, 1 hour at 37° C.
T3 construct: purchased Millipore
Description: The enzyme substrate poly (glutamic acid, tyrosine)4:1 (Sigma) was diluted with potassium-free PBS (10 mM sodium phosphate buffer, 150 mM NaCl, pH 7.2-7.4) to 20 μg/mL, plate coated with 125 μL/well, reacted for 12-16 hours at 37° C. After the liquid in the wells was discarded, the plates were washed three times with 200 μL/well of T-PBS (PBS containing 0.1% Tween-20), and each time for 5 minutes, and then dried for 1-2 hours in an oven at 37° C. 50 μL of ATP solution diluted with reaction buffer (50 mM HEPES pH 7.4, 50 mM MgCl2, 5 mM MnCl2, 0.2 mM Na3VO4, 1 mM DTT) was added into each well and the final concentration was 5 μM. The compounds were diluted with 1% DMSO to suitable concentrations and were added at 10 μL/well. Then different types of tyrosine kinase proteins (including EGFR^wt, EGFR^T790M/L858R and IGF-1R, purchased from Millipore) diluted with 40 μL of reaction buffer were added. The above reaction system was reacted for 1 hour at 37° C. shaking table (100 rpm). Control wells with no enzyme and control wells with DMSO solvent were set in each experiment. After the reaction was completed, the plates were washed three times with T-PBS. The anti-phosphotyrosine primary antibody PY99 (Santa Cruz) was added at 100 μL/well and the antibody was diluted with T-PBS containing BSA 5 mg/mL by 1:1000. The mixture was reacted for 0.5 h at 37° C. shaking table, the plates were washed three times with T-PBS. The secondary antibody which was horseradish peroxidase-labeled goat anti-mouse IgG was added at 100 μL/well (the antibody was diluted with T-PBS containing BSA 5 mg/mL by 1:2000). The mixture was reacted for 0.5 h at 37° C. shaking table, the plates were washed three times with T-PBS. 2 l/mL of OPD coloring solution was added at 100 μL/well (diluted with 0.1 M citric acid-sodium citrate buffer (pH=5.4) containing 0.03% H2O2) and dark reacted for 1 to 10 minutes at 25° C. 2 M H2SO4 was added at 50 μL/well to terminate the reaction. Reading was carried out with an adjustable wavelength microplate enzyme-labeled instrument SPECTRA MAX 190 at 490 nm wavelength.
as §2

[2] = test system: human epidermal carcinoma A431 cell line; experiment: SRB proliferation assay, A431 cells; format: cell-based; conditions: read-out: IC50 A431
Description: as §3
Methods: sulforhodamine B (SRB) method, which was as follows: certain number of different tumor cells in logarithmic growth phase were inoculated on 96-well culture plates. After cultured for 24 h to cell adherence, different concentrations of the test compounds of the invention were added. Each concentration was provided with three wells, and a corresponding concentration of DMSO solvent control and a cell-free zeroing well were set. After the cells were treated with the medicine for 72 h, the culture medium was discarded and 100 μL of 10% pre-cooled trichloroacetic acid solution was added to fix the cells. After placed for 1 h at 4° C., it was washed for 5 times with distilled water and dried naturally. Then 100 μL SRB (4 mg/mL) (Sigma) solution was added and stained for 15 min at room temperature. The staining solution was discarded and washed for 5 times with 1% glacial acetic acid and dried. Finally, 150 μL of 10 mM Tris solution (pH 10.5) was added and the OD value was measured at 515 nm with adjustable wavelength microplate enzyme-labeled instrument (VERSAmax™, Molecular Device Corporation, Sunnyvale, Calif., USA).

T2 sequence (P00533 25-1210): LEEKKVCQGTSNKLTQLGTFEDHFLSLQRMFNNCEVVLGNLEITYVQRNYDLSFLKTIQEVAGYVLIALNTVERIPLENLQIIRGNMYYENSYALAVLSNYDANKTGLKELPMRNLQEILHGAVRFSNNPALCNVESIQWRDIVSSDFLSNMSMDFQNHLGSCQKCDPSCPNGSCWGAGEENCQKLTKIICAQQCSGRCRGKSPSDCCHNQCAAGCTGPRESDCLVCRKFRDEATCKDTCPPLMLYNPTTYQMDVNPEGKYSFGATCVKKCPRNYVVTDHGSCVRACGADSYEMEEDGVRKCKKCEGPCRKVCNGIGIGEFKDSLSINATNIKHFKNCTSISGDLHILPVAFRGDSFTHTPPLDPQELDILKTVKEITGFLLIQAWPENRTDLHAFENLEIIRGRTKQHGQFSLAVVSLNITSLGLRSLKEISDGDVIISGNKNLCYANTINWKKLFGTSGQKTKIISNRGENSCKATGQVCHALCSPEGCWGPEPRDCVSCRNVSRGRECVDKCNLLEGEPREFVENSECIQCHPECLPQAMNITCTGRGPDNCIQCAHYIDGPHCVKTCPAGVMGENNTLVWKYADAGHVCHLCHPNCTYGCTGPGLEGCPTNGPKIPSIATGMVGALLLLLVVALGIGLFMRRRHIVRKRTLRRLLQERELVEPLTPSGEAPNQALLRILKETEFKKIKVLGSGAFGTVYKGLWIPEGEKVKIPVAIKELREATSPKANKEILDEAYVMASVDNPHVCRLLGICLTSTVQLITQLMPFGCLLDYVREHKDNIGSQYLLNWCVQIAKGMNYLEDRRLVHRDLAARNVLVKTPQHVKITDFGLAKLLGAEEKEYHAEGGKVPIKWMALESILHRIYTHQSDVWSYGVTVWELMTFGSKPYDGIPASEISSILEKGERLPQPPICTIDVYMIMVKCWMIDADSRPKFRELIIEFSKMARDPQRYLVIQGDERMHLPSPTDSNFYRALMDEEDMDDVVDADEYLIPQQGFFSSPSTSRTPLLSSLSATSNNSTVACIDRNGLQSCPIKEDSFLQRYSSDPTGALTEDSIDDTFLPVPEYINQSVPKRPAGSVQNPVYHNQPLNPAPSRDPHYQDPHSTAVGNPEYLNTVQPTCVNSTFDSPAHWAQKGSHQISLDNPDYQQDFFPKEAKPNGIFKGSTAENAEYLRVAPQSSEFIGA
T1 sequence (P00533 25-1210 T790M/L858R): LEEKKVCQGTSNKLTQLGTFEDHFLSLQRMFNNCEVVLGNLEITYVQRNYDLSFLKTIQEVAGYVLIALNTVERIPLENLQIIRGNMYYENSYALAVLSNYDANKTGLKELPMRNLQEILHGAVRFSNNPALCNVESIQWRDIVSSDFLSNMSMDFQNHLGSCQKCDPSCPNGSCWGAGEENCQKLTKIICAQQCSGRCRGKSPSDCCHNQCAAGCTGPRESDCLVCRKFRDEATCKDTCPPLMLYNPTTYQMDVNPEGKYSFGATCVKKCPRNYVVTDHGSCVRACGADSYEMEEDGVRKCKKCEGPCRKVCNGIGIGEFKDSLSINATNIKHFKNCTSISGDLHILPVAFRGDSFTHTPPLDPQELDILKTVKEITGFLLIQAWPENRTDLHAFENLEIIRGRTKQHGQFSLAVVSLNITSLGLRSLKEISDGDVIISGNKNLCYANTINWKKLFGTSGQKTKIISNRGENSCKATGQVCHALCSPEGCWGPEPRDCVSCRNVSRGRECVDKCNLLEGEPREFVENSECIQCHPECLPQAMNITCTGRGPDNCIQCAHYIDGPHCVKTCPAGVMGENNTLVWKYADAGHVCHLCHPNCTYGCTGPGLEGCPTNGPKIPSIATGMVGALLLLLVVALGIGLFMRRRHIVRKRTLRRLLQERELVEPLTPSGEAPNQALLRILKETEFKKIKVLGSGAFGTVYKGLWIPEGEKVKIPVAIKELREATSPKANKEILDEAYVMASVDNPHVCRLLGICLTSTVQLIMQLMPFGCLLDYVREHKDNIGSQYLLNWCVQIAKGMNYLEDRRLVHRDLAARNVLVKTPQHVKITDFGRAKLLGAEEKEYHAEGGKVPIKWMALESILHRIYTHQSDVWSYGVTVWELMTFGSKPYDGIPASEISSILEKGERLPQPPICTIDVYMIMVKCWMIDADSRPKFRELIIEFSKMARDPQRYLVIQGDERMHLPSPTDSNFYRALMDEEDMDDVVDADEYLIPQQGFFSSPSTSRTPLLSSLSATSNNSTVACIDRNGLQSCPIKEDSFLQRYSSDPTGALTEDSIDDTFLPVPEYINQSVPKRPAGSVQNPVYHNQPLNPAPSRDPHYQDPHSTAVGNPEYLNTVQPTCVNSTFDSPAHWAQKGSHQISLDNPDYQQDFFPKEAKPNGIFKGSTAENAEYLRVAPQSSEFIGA
T3 sequence (P08069 31-1367): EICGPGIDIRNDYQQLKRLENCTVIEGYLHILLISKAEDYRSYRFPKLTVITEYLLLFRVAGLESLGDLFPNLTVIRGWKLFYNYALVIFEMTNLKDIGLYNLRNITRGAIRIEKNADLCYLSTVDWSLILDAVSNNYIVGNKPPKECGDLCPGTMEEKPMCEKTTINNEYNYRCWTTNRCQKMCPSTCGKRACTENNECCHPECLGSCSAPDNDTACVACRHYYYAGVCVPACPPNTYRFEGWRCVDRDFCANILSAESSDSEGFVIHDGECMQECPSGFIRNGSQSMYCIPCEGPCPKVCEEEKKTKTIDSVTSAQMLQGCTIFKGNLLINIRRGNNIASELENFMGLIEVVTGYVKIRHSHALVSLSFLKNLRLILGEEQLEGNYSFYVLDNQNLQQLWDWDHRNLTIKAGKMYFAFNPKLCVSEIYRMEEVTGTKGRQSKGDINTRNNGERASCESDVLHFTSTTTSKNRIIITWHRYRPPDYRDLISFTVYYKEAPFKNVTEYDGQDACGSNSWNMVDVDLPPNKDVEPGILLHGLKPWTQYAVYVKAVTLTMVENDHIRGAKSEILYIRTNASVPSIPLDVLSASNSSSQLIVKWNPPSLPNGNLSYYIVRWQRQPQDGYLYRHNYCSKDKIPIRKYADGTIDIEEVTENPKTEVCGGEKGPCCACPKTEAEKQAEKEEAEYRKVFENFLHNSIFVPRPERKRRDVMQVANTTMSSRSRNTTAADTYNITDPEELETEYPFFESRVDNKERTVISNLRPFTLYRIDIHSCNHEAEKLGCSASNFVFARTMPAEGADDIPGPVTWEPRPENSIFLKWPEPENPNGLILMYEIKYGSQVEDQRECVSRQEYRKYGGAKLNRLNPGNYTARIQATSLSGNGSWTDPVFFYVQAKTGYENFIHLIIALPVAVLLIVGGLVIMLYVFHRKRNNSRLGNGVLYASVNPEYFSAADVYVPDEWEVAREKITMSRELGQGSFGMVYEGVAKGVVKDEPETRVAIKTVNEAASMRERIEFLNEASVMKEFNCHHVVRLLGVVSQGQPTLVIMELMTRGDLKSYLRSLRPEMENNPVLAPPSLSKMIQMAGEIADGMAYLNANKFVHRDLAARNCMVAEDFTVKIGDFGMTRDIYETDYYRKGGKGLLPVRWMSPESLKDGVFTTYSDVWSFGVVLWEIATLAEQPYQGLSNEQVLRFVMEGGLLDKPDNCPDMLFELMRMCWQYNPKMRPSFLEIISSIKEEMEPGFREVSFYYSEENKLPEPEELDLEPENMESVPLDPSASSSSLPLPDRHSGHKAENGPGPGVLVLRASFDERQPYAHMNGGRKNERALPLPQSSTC

Row | Compound | IC50 (EGFR^T790M/L858R) [nM] | IC50 (EGFR^wt) [nM] | IC50 ([1]; NCI-H1975, SRB, 72 h) [nM] | IC50 (IGF-1R) [nM] | IC50 ([2]; A-431, SRB, 72 h) [nM] | IC50 ([1]; NCI-H1975, 72 h) [nM] | IC50 ([2]; A-431, 72 h) [nM] | kinase inhibitory activity (in words) (EGFR^T790M/L858R; summary of Table 1)
1 | C=CC(=O)Nc1cc(Nc2ncc(Cl)c(Nc3ccc4ccccc4c3)n2)c(OC)cc1N1CC(N(C)C)C1 [CCB120138, N-((5-((5-chloro-4-((naphthalen-2-yl)amino))pyrimidin-2-yl)amino)-2-(3-dimethylaminoazetidin-1-yl)-4-methoxyphenyl)acrylamide] | 0.6 | 4.3 | 164 | 426 | 912 |  |  | 
2 | CN(C)C/C=C/C(=O)Nc1cccc(Nc2ncc(Cl)c(Nc3ccc4ccccc4c3)n2)c1 [CCB145333, (E)-N-((3-((5-chloro-4-((naphthalen-2-yl)amino))pyrimidin-2-yl)amino)phenyl)-4-(dimethylamino)-2-butenamide] | 24.2 | 4750 | 632 | 170 | 6220 |  |  | 
3 | COc1ccc(NC(=O)/C=C/CN(C)C)cc1Nc1ncc(Br)c(Nc2ccc3ccccc3c2)n1 [CCB145286, (E)-N-((3-((5-bromo-4-((naphthalen-2-yl)amino))pyrimidin-2-yl)amino)-4-methoxyphenyl)-4-(dimethylamino)-2-butenamide] | 22.5 | 254 | 416 | 20.5 | 1120 |  |  | 
4 | C=CC(=O)Nc1cc(Nc2ncc(Cl)c(Nc3ccc4ccccc4c3)n2)c(OC)cc1N1CCC(N(C)C)CC1 [CCB120121, N-((5-((5 chloro-4-((naphthalen-2-yl)amino))pyrimidin-2-yl)amino)-2-(4-dimethylaminopiperidine)-4-methoxyphenyl)acrylamide] | 1.3 | > 100 | 4 | 13.7 | 324 |  |  | 
5 | C=CC(=O)Nc1cc(CN2CCN(C)CC2)cc(Nc2ncc(Cl)c(Nc3ccc4ccccc4c3)n2)c1 [CCB120103, N-((3-((5-chloro-4-((naphthalene-2-yl)amino))pyrimidine-2-yl)amino)-5-((4-methylpiperazine-1-yl)methyl)phenyl)acrylamide] | 3.1 | 102 | 131 | 73.3 | 1020 |  |  | 
6 | C=CC(=O)Nc1cc(Nc2ncc(Cl)c(Nc3ccc4ccccc4c3)n2)c(OC)cc1N1CCN(C(C)=O)CC1 [CCB120111, N-((5-((5-chloro-4-((naphthalen-2-yl)amino))pyrimidin-2-yl)amino)-2-(4-acetylpiperazine)-4-methoxyphenyl)acrylamide] | 21.5 | > 100 | 51 | 19.8 | 1100 |  |  | 
7 | COc1ccc(NC(=O)/C=C/CN(C)C)cc1Nc1ncc(Cl)c(Nc2ccc3ccccc3c2)n1 [CCB118563, (E)-N-((3-((5-chloro-4-((naphthalen-2-yl)amino))pyrimidin-2-yl)amino)-4-methoxyphenyl)-4-(dimethylamino)-2-butenamide] | 18.2 | 260 |  | 14.7 |  | 306 | 1130 | 
8 | COc1ccc(NC(=O)/C=C/CN(C)C)cc1Nc1ncc(Cl)c(Oc2ccc3ccccc3c2)n1 [CCB145260, (E)-N-((3-((5-chloro-4-((naphthalen-2-yl)oxy))pyrimidin-2-yl)amino)-4-methoxyphenyl)-4-(dimethylamino)-2-butenamide] | 293 | > 10000 | 2040 | 297 | 17800 |  |  | 
9 | COc1cc(F)c(NC(=O)/C=C/CN(C)C)cc1Nc1ncc(Cl)c(Nc2ccc3ccccc3c2)n1 [CCB145380, (E)-N-((5-((5-chloro-4-((naphthalen-2-yl)amino))pyrimidin-2-yl)amino)-2-fluoro-4-methoxyphenyl)-4-(dimethylamino)-2-butenamide] | 6.7 | 1060 | 429 | 195 | 1670 |  |  | 
10 | CCOc1ccc(NC(=O)/C=C/CN(C)C)cc1Nc1ncc(Cl)c(Nc2ccc3ccccc3c2)n1 [CCB145373, (E)-N-((3-((5-chloro-4-((naphthalen-2-yl)amino))pyrimidin-2-yl)amino)-4-ethoxyphenyl)-4-(dimethylamino)-2-butenamide] | 25.6 | 1460 | 1180 | 163 | 6260 |  |  | 
11 | C=CC(=O)Nc1cc(CN(C)CCN(C)C)cc(Nc2ncc(Cl)c(Nc3ccc4ccccc4c3)n2)c1 [CCB120069, N-((3-((5-chloro-4-((naphthalen-2-yl)amino))pyrimidin-2-yl)amino)-5-((N-methyl-N-dimethylaminoethyl)methylamine)phenyl)acrylamide] | 3.9 | 132 | 147 | 9 | 535 |  |  | potent
12 | CN(C)C/C=C/C(=O)Nc1ccc(F)c(Nc2ncc(Br)c(Nc3ccc4ccccc4c3)n2)c1 [CCB145330, (E)-N-((3-((5-bromo-4-((naphthalen-2-yl)amino))pyrimidin-2-yl)amino)-4-fluorophenyl)-4-(dimethylamino)-2-butenamide] | 32.4 | 4150 | 948 | 146 | 12800 |  |  | 
